The values below come from ChEMBL document CHEMBL1138003, “Small molecule inhibitors of the CCR2b receptor. Part 1: Discovery and optimization of homopiperazine derivatives” (Bioorg Med Chem Lett, 2004).

The target in assay [1] is T1, C-C chemokine receptor type 2 (Homo sapiens, UniProt P41597). Nature of the assay: Percent inhibition of […] (Monocyte Chemoattractant Protein-1) binding to THP-1 cells at 100 uM. It is filed as cell-based.
Target sequence in this assay (P41597 whole entry, looked up): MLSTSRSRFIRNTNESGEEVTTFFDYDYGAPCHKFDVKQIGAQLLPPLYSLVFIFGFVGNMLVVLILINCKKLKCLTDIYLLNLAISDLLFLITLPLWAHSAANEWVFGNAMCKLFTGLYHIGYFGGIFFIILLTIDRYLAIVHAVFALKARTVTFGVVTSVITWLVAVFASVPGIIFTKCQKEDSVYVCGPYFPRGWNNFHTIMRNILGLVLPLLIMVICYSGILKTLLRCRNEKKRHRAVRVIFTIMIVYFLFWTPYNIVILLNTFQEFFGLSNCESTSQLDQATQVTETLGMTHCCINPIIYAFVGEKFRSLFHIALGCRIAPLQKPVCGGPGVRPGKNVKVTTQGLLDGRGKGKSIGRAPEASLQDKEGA
For assay [2], the target named is T1, C-C chemokine receptor type 2. Nature of the assay: Concentration required to inhibit [125I]MCP-1 (Monocyte Chemoattractant Protein-1) binding to THP-1 cell. Type of assay: cell-based.
Target sequence in this assay (P41597 whole entry): as the sequence (P41597 whole entry, looked up) above
Assay [3] shares this target. The assay is described as follows: Percent inhibition of [125I]MCP-1 (Monocyte Chemoattractant Protein-1) binding to THP-1 cells at 100 uM. It is filed as cell-based.
Target sequence in this assay (P41597 whole entry, looked up): as above
Assay [4] shares this target. Nature of the assay: Concentration required to inhibit [125I]MCP-1 (Monocyte Chemoattractant Protein-1) binding to THP-1 cell; not determined. It is filed as cell-based.
Target sequence in this assay (P41597 whole entry): as the sequence (P41597 whole entry, looked up) above
Assay [5] can be described thus: Effective concentration in a chemotaxis assay. Type of assay: functional.

Bounds are passed on as bounds.

`O=[N+]([O-])c1ccccc1CN1CCCN(CCC(c2ccccc2)c2ccccc2)CC1`: the inhibition in assay [1] worked out at 7%. `CS(=O)(=O)c1ccc(CN2CCCN(CCC(O)(c3cccc(O)c3)c3cc(F)cc(F)c3)CC2)cc1` (stereo not given) yielded an IC50 in assay [2] of 9.3 µM. The inhibition in assay [3] stood at 107%.

`COc1cccc(C(O)(CCN2CCCN(Cc3ccc(S(C)(=O)=O)cc3)CC2)c2cccc(OC)c2)c1`: the inhibition in assay [3] was 38%. Regarding `CS(=O)(=O)c1ccc(CN2CCCN(CCC(O)(c3ccc(F)cc3)c3ccc(F)cc3)CC2)cc1`, the IC50 in assay [2] stood at 7 µM. Further, the inhibition in assay [3] is 100%.

Regarding `CCCN1CCCN(CCC(c2ccccc2)c2ccccc2)CC1`, the inhibition in assay [1] is 15%.

The compound `CS(=O)(=O)c1ccc(CN2CCCN(CCC(O)(c3cccc(O)c3)c3cccc(Cl)c3)CC2)cc1` (stereo not given) gave an IC50 in assay [2] of 4.5 µM. In addition, the inhibition in assay [3] was determined as 99%. In the same order, the values of `CS(=O)(=O)c1ccc(CN2CCCN(CCC(O)(c3cccc(F)c3)c3cccc(F)c3)CC2)cc1` are 34 µM and 75%. For the compound `CS(=O)(=O)c1ccc(CN2CCCN(CCC(O)(c3cccc(O)c3)c3cccc(O)c3)CC2)cc1`, in assay [4], the IC50 amounted to 1500 nM. Besides, the inhibition in assay [3] came out at 108%.

In assay [2], `CS(=O)(=O)c1ccc(CN2CCCN(CCC(O)(c3ccccc3)c3cccc(N)c3)CC2)cc1` (stereo not given) displayed an IC50 of 4.2 µM. The inhibition in assay [3] came to 102%. Consider `c1ccc(CN2CCCN(CCC(c3ccccc3)c3ccccc3)CC2)cc1`, for which the inhibition in assay [1] is 24%. As to `Cc1ccccc1C(O)(CCN1CCCN(Cc2ccc(S(C)(=O)=O)cc2)CC1)c1ccccc1C`, in assay [3], the inhibition was 0%. For the compound `CS(=O)(=O)c1ccc(CN2CCCN(CCC(O)(c3cccc(O)c3)c3cccc(F)c3)CC2)cc1` (stereo not given), in assay [2], the IC50 came to 2.4 µM. Also, the inhibition in assay [3] was found to be 104%. The corresponding values for `CS(=O)(=O)c1ccc(CN2CCCN(CCC(O)(c3ccccc3)c3ccccc3)CC2)cc1` are 4.1 µM and 104%. In the same order, the values of `CS(=O)(=O)c1ccc(CN2CCCN(CCC(O)(c3ccccc3)c3cccc(O)c3)CC2)cc1` (stereo not given) are 0.71 µM and 105%. In the same order, the values of `Cc1cccc(C(O)(CCN2CCCN(Cc3ccc(S(C)(=O)=O)cc3)CC2)c2ccccc2)c1` (stereo not given) are 16 µM and 92%.

On to `CS(=O)(=O)c1ccc(CN2CCCN(CCC(O)(c3ccccc3)c3cccc(F)c3)CC2)cc1` (stereo not given), for which the IC50 in assay [2] was 12 µM. For the same compound, in assay [3], the inhibition was 95%. For `Clc1ccc(CN2CCCN(CCC(c3ccccc3)c3ccccc3)CC2)cc1`, the inhibition in assay [1] was 8%. For the compound `O=C(CN1CCCN(CCC(O)(c2ccccc2)c2cccc(O)c2)CC1)NNC(=O)c1cccs1` (stereo not given), the IC50 in assay [2] was determined as 28 µM. Regarding `NS(=O)(=O)c1ccc(CN2CCCN(CCC(O)(c3ccccc3)c3cccc(O)c3)CC2)cc1` (stereo not given), the IC50 in assay [2] was 1.5 µM. For `O=[N+]([O-])c1ccc(CN2CCCN(CCC(c3ccccc3)c3ccccc3)CC2)cc1`, the inhibition in assay [1] was 87%. The compound also yielded an IC50 in assay [2] of 19 µM. In assay [2], `CS(=O)(=O)c1ccc(CN2CCCN(CCC(O)(c3ccc(Cl)cc3)c3ccc(Cl)cc3)CC2)cc1` gave an IC50 of 11 µM. For the same compound, the inhibition in assay [3] amounted to 94%. For the compound `CS(=O)(=O)c1ccc(CN2CCCN(Cc3ccc(Cl)cc3)CC2)cc1`, in assay [2], the IC50 was > 100 µM. For the compound `CC(C)(C)c1ccc(C(O)(CCN2CCCN(Cc3ccc(S(C)(=O)=O)cc3)CC2)c2ccc(C(C)(C)C)cc2)cc1`, the inhibition in assay [3] stood at 39%. In assay [2], `CS(=O)(=O)c1ccc(CN2CCCN(CCC(O)(c3ccc(Cl)cc3)c3cccc(O)c3)CC2)cc1` (stereo not given) registered an IC50 of 1.5 µM. Besides, in assay [3], the inhibition was determined as 104%. On to `COc1ccc(CN2CCCN(CCC(c3ccccc3)c3ccccc3)CC2)cc1`, for which the inhibition in assay [1] was 7%. `O=C(CN1CCCN(Cc2ccc(Cl)cc2)CC1)NNC(=O)c1cccs1` showed an IC50 in assay [2] of 30 µM. That is a double-digit micromolar value. For the compound `CS(=O)(=O)c1ccc(CN2CCCN(CCC(c3ccccc3)c3ccccc3)CC2)cc1`, in assay [1], the inhibition turned out to be 91%. This compound also had an IC50 in assay [2] of 13 µM. In the case of `COc1ccccc1C(O)(CCN1CCCN(Cc2ccc(S(C)(=O)=O)cc2)CC1)c1ccccc1OC`, the inhibition in assay [3] came out at 14%. On to `CS(=O)(=O)c1ccc(CN2CCCN(CCC(O)(c3ccc(O)cc3)c3ccc(O)cc3)CC2)cc1`, for which the IC50 in assay [2] came out at 21 µM. Further, the inhibition in assay [3] was 83%. Regarding `c1ccc(C(CCN2CCCN(Cc3ccccn3)CC2)c2ccccc2)cc1`, the inhibition in assay [1] was determined as 35%. With `N#Cc1ccc(CN2CCCN(CCC(c3ccccc3)c3ccccc3)CC2)cc1`, in assay [1], the inhibition came out at 74%. The same compound returned an IC50 in assay [2] of 43 µM. As for `FC(F)(F)c1ccc(CN2CCCN(CCC(c3ccccc3)c3ccccc3)CC2)cc1`, the inhibition in assay [1] is 25%. In assay [2], `CN(C)c1ccc(C(O)(CCN2CCCN(Cc3ccc(S(C)(=O)=O)cc3)CC2)c2ccc(N(C)C)cc2)cc1` came in with an IC50 of 45 µM. The inhibition in assay [3] worked out at 68%. `Cc1csc(C(=O)NNC(=O)CN2CCCN(CCC(O)(c3ccccc3)c3cccc(O)c3)CC2)c1` (stereo not given): the IC50 in assay [2] was determined as 6.4 µM. This counts as single-digit micromolar. In assay [2], `Cc1csc(C(=O)NNC(=O)CN2CCCN(Cc3ccc(Cl)cc3)CC2)c1` displayed an IC50 of 7.4 µM. The EC50 in assay [5] was 9.5 µM. Consider `CS(=O)(=O)c1ccc(CN2CCCN(CCC(O)(c3ccc(C(F)(F)F)cc3)c3ccc(C(F)(F)F)cc3)CC2)cc1`, for which, in assay [3], the inhibition was 38%.

As for `CS(=O)(=O)c1ccc(CN2CCCN(CCC(O)(c3cccc(Cl)c3)c3cccc(Cl)c3)CC2)cc1`, the inhibition in assay [3] is 28%.

As to `CS(=O)(=O)c1ccc(CN2CCCN(CCC(O)(c3ccc(F)cc3)c3cccc(O)c3)CC2)cc1` (stereo not given), the IC50 in assay [2] turned out to be 1.5 µM. The inhibition in assay [3] was 105%. In the case of `COC(=O)c1ccc(CN2CCCN(CCC(c3ccccc3)c3ccccc3)CC2)cc1`, the inhibition in assay [1] is 1%. The same measure, in the same setting: next, `O=[N+]([O-])c1cccc(CN2CCCN(CCC(c3ccccc3)c3ccccc3)CC2)c1`: 35%.

On to `CS(=O)(=O)c1ccc(CN2CCCN(CCC(O)(c3ccc(-c4ccccc4)cc3)c3ccc(-c4ccccc4)cc3)CC2)cc1`, for which, in assay [3], the inhibition was found to be 0%. The compound `COc1cccc(C(O)(CCN2CCCN(Cc3ccc(S(C)(=O)=O)cc3)CC2)c2ccccc2)c1` (stereo not given) gave an IC50 in assay [2] of 7.9 µM. Besides, in assay [3], the inhibition amounted to 97%. The corresponding values for `CS(=O)(=O)c1ccc(CN2CCCN(CCC(O)(c3ccccc3)c3cccc(CO)c3)CC2)cc1` (stereo not given) are 4 µM and 100%. With `c1ccc(C(CCN2CCCN(Cc3ccncc3)CC2)c2ccccc2)cc1`, the inhibition in assay [1] is 87%. In assay [2], this compound came in with an IC50 of 11 µM. `c1ccc(C(CCN2CCCN(Cc3cccnc3)CC2)c2ccccc2)cc1`: in assay [1], the inhibition was determined as 69%. `CNc1cccc(C(O)(CCN2CCCN(Cc3ccc(S(C)(=O)=O)cc3)CC2)c2ccccc2)c1` (stereo not given) gave an IC50 in assay [2] of 5 µM. Moreover, in assay [3], the inhibition turned out to be 87%.
